In the supplement of paper PMC10307832:

Tests used:
Test in all cases: relative viability (nuclei count vs DMSO), 5 days (fraction); higher = more cells survive
[1] = tested on: 201T
Method in brief: (§1)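 Dosing by pin tool came one day after lung cancer cell lines were seeded in 1536-well plates, using either one drug or a fixed anchor-drug dose plus five library-drug doses (not always all listed) in √10 steps. After 5 days, nuclei were counted on 4× images. Relative viability is treated-well nuclei count divided by vehicle-well nuclei count, and values are medians of duplicate plates.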

[2] = tested on: A-427
Method in brief: as §1

[3] = tested on: H3255
Method in brief: as §1

[4] = tested on: HCC-44
Method in brief: as §1

[5] = tested on: LC-2-ad
Method in brief: as §1

[6] = tested on: LCLC-103H
Method in brief: as §1

[7] = tested on: LCLC-97TM1
Method in brief: as §1

[8] = tested on: LK-2
Method in brief: as §1

[9] = tested on: LU99A
Method in brief: as §1

[10] = tested on: NCI-H1793
Method in brief: as §1

[11] = tested on: NCI-H2347
Method in brief: as §1

[12] = tested on: NCI-H23
Method in brief: as §1

[13] = tested on: NCI-H460
Method in brief: as §1

[14] = tested on: NCI-H596
Method in brief: as §1

[15] = tested on: NCI-H727
Method in brief: as §1

[16] = tested on: PC-14
Method in brief: as §1

[17] = tested on: PC-3 [JPC-3]
Method in brief: as §1

[18] = tested on: SW 900
Method in brief: as §1

[19] = tested on: COR-L23
Method in brief: as §1

[20] = tested on: NCI-H1650
Method in brief: as §1

[21] = tested on: NCI-H2228
Method in brief: as §1

[22] = tested on: SW 1573
Method in brief: as §1

CCN(CC)CCCCNc1ncc2cc(-c3cc(OC)cc(OC)c3)c(NC(=O)NC(C)(C)C)nc2n1 + NC(=O)Nc1cc(-c2cccc(F)c2)sc1C(=O)N[C@H]1CCCNC1 [AZD7762] (partner 0.2 µM)
relative viability ([1]; first compound 0.01 µM): 0.747 | relative viability ([1]; first compound 0.03162 µM): 0.617 | relative viability ([1]; first compound 0.1 µM): 0.68 | relative viability ([1]; first compound 0.3162 µM): 0.685 | relative viability ([1]; first compound 1 µM): 0.758 | relative viability ([2]; first compound 0.01 µM): 0.722 | relative viability ([2]; first compound 0.03162 µM): 0.671 | relative viability ([2]; first compound 0.1 µM): 0.778 | relative viability ([2]; first compound 0.3162 µM): 0.549 | relative viability ([2]; first compound 1 µM): 0.421 | relative viability ([3]; first compound 0.01 µM): 0.84 | relative viability ([3]; first compound 0.03162 µM): 0.909 | relative viability ([3]; first compound 0.1 µM): 0.911 | relative viability ([3]; first compound 0.3162 µM): 1.11 | relative viability ([3]; first compound 1 µM): 0.855 | relative viability ([4]; first compound 0.01 µM): 1 | relative viability ([4]; first compound 0.03162 µM): 1.02 | relative viability ([4]; first compound 0.1 µM): 1.02 | relative viability ([4]; first compound 0.3162 µM): 1.02 | relative viability ([4]; first compound 1 µM): 1.12 | relative viability ([5]; first compound 0.01 µM): 0.878 | relative viability ([5]; first compound 0.03162 µM): 0.798 | relative viability ([5]; first compound 0.1 µM): 0.92 | relative viability ([5]; first compound 0.3162 µM): 0.932 | relative viability ([5]; first compound 1 µM): 0.815 | relative viability ([6]; first compound 0.01 µM): 0.926 | relative viability ([6]; first compound 0.03162 µM): 0.843 | relative viability ([6]; first compound 0.1 µM): 0.824 | relative viability ([6]; first compound 0.3162 µM): 0.83 | relative viability ([6]; first compound 1 µM): 0.705 | relative viability ([7]; first compound 0.03162 µM): 0.384 | relative viability ([7]; first compound 0.1 µM): 0.275 | relative viability ([7]; first compound 0.3162 µM): 0.234 | relative viability ([7]; first compound 1 µM): 0.227 | relative viability ([8]; first compound 0.01 µM): 0.471 | relative viability ([8]; first compound 0.03162 µM): 0.394 | relative viability ([8]; first compound 0.1 µM): 0.374 | relative viability ([8]; first compound 0.3162 µM): 0.276 | relative viability ([8]; first compound 1 µM): 0.197 | relative viability ([9]; first compound 0.01 µM): 0.325 | relative viability ([9]; first compound 0.03162 µM): 0.486 | relative viability ([9]; first compound 0.1 µM): 0.323 | relative viability ([9]; first compound 0.3162 µM): 0.35 | relative viability ([9]; first compound 1 µM): 0.289 | relative viability ([10]; first compound 0.01 µM): 0.541 | relative viability ([10]; first compound 0.03162 µM): 0.581 | relative viability ([10]; first compound 0.1 µM): 0.601 | relative viability ([10]; first compound 0.3162 µM): 0.326 | relative viability ([10]; first compound 1 µM): 0.319 | relative viability ([11]; first compound 0.01 µM): 0.737 | relative viability ([11]; first compound 0.03162 µM): 0.622 | relative viability ([11]; first compound 0.1 µM): 0.842 | relative viability ([11]; first compound 0.3162 µM): 0.748 | relative viability ([11]; first compound 1 µM): 0.684 | relative viability ([12]; first compound 0.01 µM): 0.229 | relative viability ([12]; first compound 0.03162 µM): 0.352 | relative viability ([12]; first compound 0.1 µM): 0.323 | relative viability ([12]; first compound 0.3162 µM): 0.207 | relative viability ([12]; first compound 1 µM): 0.172 | relative viability ([13]; first compound 0.01 µM): 0.607 | relative viability ([13]; first compound 0.03162 µM): 0.739 | relative viability ([13]; first compound 0.1 µM): 0.716 | relative viability ([13]; first compound 0.3162 µM): 0.821 | relative viability ([13]; first compound 1 µM): 0.4 | relative viability ([14]; first compound 0.01 µM): 1.11 | relative viability ([14]; first compound 0.03162 µM): 1 | relative viability ([14]; first compound 0.1 µM): 1.06 | relative viability ([14]; first compound 0.3162 µM): 0.979 | relative viability ([14]; first compound 1 µM): 0.801 | relative viability ([15]; first compound 0.01 µM): 0.766 | relative viability ([15]; first compound 0.03162 µM): 0.63 | relative viability ([15]; first compound 0.1 µM): 0.677 | relative viability ([15]; first compound 0.3162 µM): 0.791 | relative viability ([15]; first compound 1 µM): 0.667 | relative viability ([16]; first compound 0.01 µM): 0.352 | relative viability ([16]; first compound 0.03162 µM): 0.347 | relative viability ([16]; first compound 0.1 µM): 0.568 | relative viability ([16]; first compound 0.3162 µM): 0.497 | relative viability ([16]; first compound 1 µM): 0.316 | relative viability ([17]; first compound 0.03162 µM): 0.822 | relative viability ([17]; first compound 0.1 µM): 0.756 | relative viability ([17]; first compound 0.3162 µM): 1.03 | relative viability ([17]; first compound 1 µM): 0.639 | relative viability ([18]; first compound 0.01 µM): 0.646 | relative viability ([18]; first compound 0.03162 µM): 0.637 | relative viability ([18]; first compound 0.1 µM): 0.626 | relative viability ([18]; first compound 0.3162 µM): 0.538 | relative viability ([18]; first compound 1 µM): 0.388

COc1nc(C)cnc1NS(=O)(=O)c1cccnc1-c1ccc(-c2nnco2)cc1 [Zibotentan] + CC1(C)CCC(c2ccc(Cl)cc2)=C(CN2CCN(c3ccc(C(=O)NS(=O)(=O)c4ccc(N[C@H](CCN5CCOCC5)CSc5ccccc5)c(S(=O)(=O)C(F)(F)F)c4)cc3)CC2)C1 [Navitoclax] (partner 0.5 µM)
relative viability ([1]; first compound 0.08 µM): 1.23 | relative viability ([1]; first compound 0.253 µM): 1.21 | relative viability ([1]; first compound 0.8 µM): 1.23 | relative viability ([1]; first compound 2.53 µM): 1.21 | relative viability ([2]; first compound 0.08 µM): 0.943 | relative viability ([2]; first compound 0.253 µM): 0.978 | relative viability ([2]; first compound 0.8 µM): 0.978 | relative viability ([2]; first compound 2.53 µM): 0.995 | relative viability ([19]; first compound 0.08 µM): 1.03 | relative viability ([19]; first compound 0.253 µM): 1.08 | relative viability ([19]; first compound 0.8 µM): 1.07 | relative viability ([19]; first compound 2.53 µM): 1.01 | relative viability ([3]; first compound 0.08 µM): 0.458 | relative viability ([3]; first compound 0.253 µM): 0.603 | relative viability ([3]; first compound 0.8 µM): 0.609 | relative viability ([3]; first compound 2.53 µM): 0.458 | relative viability ([4]; first compound 0.08 µM): 1.24 | relative viability ([4]; first compound 0.253 µM): 0.887 | relative viability ([4]; first compound 0.8 µM): 0.99 | relative viability ([4]; first compound 2.53 µM): 1.04 | relative viability ([5]; first compound 0.08 µM): 0.36 | relative viability ([5]; first compound 0.253 µM): 0.386 | relative viability ([5]; first compound 0.8 µM): 0.533 | relative viability ([5]; first compound 2.53 µM): 0.516 | relative viability ([7]; first compound 0.08 µM): 0.365 | relative viability ([7]; first compound 0.253 µM): 0.402 | relative viability ([7]; first compound 0.8 µM): 0.403 | relative viability ([7]; first compound 2.53 µM): 0.447 | relative viability ([8]; first compound 0.08 µM): 1.1 | relative viability ([8]; first compound 0.253 µM): 0.807 | relative viability ([8]; first compound 0.8 µM): 0.806 | relative viability ([8]; first compound 2.53 µM): 0.828 | relative viability ([9]; first compound 0.08 µM): 0.753 | relative viability ([9]; first compound 0.253 µM): 0.768 | relative viability ([9]; first compound 0.8 µM): 0.791 | relative viability ([9]; first compound 2.53 µM): 0.869 | relative viability ([20]; first compound 0.08 µM): 1.26 | relative viability ([20]; first compound 0.8 µM): 1.36 | relative viability ([20]; first compound 2.53 µM): 1.09 | relative viability ([10]; first compound 0.08 µM): 0.506 | relative viability ([10]; first compound 0.253 µM): 0.405 | relative viability ([10]; first compound 0.8 µM): 0.414 | relative viability ([10]; first compound 2.53 µM): 0.486 | relative viability ([21]; first compound 0.08 µM): 0.942 | relative viability ([21]; first compound 0.253 µM): 0.85 | relative viability ([21]; first compound 0.8 µM): 0.685 | relative viability ([21]; first compound 2.53 µM): 1.44 | relative viability ([11]; first compound 0.08 µM): 0.746 | relative viability ([11]; first compound 0.253 µM): 0.776 | relative viability ([11]; first compound 0.8 µM): 0.741 | relative viability ([11]; first compound 2.53 µM): 0.77 | relative viability ([12]; first compound 0.08 µM): 0.906 | relative viability ([12]; first compound 0.253 µM): 0.773 | relative viability ([12]; first compound 0.8 µM): 0.872 | relative viability ([12]; first compound 2.53 µM): 0.853 | relative viability ([13]; first compound 0.08 µM): 1.41 | relative viability ([13]; first compound 0.8 µM): 1.14 | relative viability ([13]; first compound 2.53 µM): 1.23 | relative viability ([14]; first compound 0.08 µM): 1.19 | relative viability ([14]; first compound 0.253 µM): 0.896 | relative viability ([14]; first compound 0.8 µM): 0.958 | relative viability ([14]; first compound 2.53 µM): 1.05 | relative viability ([15]; first compound 0.08 µM): 0.48 | relative viability ([15]; first compound 0.253 µM): 0.396 | relative viability ([15]; first compound 0.8 µM): 0.48 | relative viability ([15]; first compound 2.53 µM): 0.435 | relative viability ([16]; first compound 0.08 µM): 1.01 | relative viability ([16]; first compound 0.253 µM): 0.983 | relative viability ([16]; first compound 0.8 µM): 0.987 | relative viability ([16]; first compound 2.53 µM): 1.03 | relative viability ([17]; first compound 0.08 µM): 0.771 | relative viability ([17]; first compound 0.253 µM): 0.726 | relative viability ([17]; first compound 0.8 µM): 0.795 | relative viability ([17]; first compound 2.53 µM): 0.728 | relative viability ([22]; first compound 0.08 µM): 0.993 | relative viability ([22]; first compound 0.253 µM): 0.914 | relative viability ([22]; first compound 0.8 µM): 1.01 | relative viability ([22]; first compound 2.53 µM): 1.04
